For this test, the system named is lipoidalamine-induced arthritis. Kind of test: Lipoidalamine-induced arthritis model. The settings on record: rat, positive control, 0.1 mg/kg orally. It counts as in vivo. An excerpt: The lipoidalamine-induced arthritis test is a model of systemic inflammation and arthritis induced by the adjuvant substance N, N-dioctadecyl-N′,N′-bis(2-hydroxyethyl)propanediamine (LA) suspended in mineral oil. The disease that results is very similar to that occurring in Freund's complete adjuvant (FCA) treated rats according to Chang [Chang, Y., Pearson, C. M., and Abe, C., "Adjuvant polyarthritis IV. Induction by a synthetic adjuvant: immunologic, histopathologic, and other studies," Arth. Rheum.23: 62-71, (1980)]. Inflammation occurs in many tissues but is most striking in the spleen and joints. Compounds are tested for their ability to modulate splenic and joint inflammation in established disease (treatment starts on day 9).
The animals (Lewis/Sprague Dawley, males, 200-220 grams) are divided into groups of 5 and housed in hanging cages with food and water ad libitum. On day 0 they are injected with 7.5 mg of LA subcutaneously at the base of the tail. On day 9 the animals are weighed and compound administration is started. The compounds are suspended, using a tissue homogenizer, in a 1% CMC solution. The screening dose is 50 mg/kg orally. Compounds are administered once daily for 5 days (days 9-13) with no dosing on day 14. On day 15 the animals are weighed again and hind paw volume measured using a water manometer. The animals are then anesthetized and bled via cardiac puncture. After the animals are euthanized, the spleen is removed and weighed and the hind feet are removed just above the ankle joint and weighed. The individual blood samples are analyzed for fibrinogen. Means and standard errors for all of these parameters are then calculated, and percent differences from the diseased (LA) control are figured. Statistical significance is determined utilizing the Dunnet T calculation on the raw data. The positive control for the LA arthritis test is dexamethasone. Dexamethasone at a dose of 0.1 mg/kg orally will inhibit paw swelling by 80-90% and spleen weight by 90-100%. […]

`C[C@@H]1C[C@H]2[C@@H]3CCC4=CC(=O)C=C[C@]4(C)[C@@]3(F)[C@@H](O)C[C@]2(C)[C@@]1(O)C(=O)CO` [Dexamethasone, dexamethasone]: the inhibit paw swelling is 80-90% and the inhibit spleen weight is 90-100%. The fibrinogen inhibited (more variable) is 50-70%.

The values are drawn from patent EP0526258A2, “A87689 Compounds, their production and use as phospholipase-A2 inhibitors” (ELI LILLY AND COMPANY, priority 1991, dated 1993).
